Measurements: article PMC8476755 (Frontiers in Chemistry, 2021)
Entries after “also recorded” stand apart in the source; their conditions may differ.

Target: T1, human α1β2γ2 GABAA receptors (Homo sapiens, UniProt P14867+P47870)
T1 construct: expressed in transfected cells
Assay: FMP assay at GABAA receptors in HEK293 cells
Type: cell-based
Conditions: for Activity at α1β2γ2 GABAA receptors: 2 tested up to 100 µM
From the text: For this purpose we chose the major GABAA receptor subtype in the brain, α1β2γ2, and used the FMP assay for functional assessment as previously reported ([Falk-Petersen et al., 2020]). This assay detects changes in membrane potential for an average cell population through changes in fluorescence of a membrane pre-equilibrated fluorescent blue dye. It therefore provides an indirect measure of activity with the advantage of being able to discern between GAT substrates and inhibitors ([Kragholm et al., 2013]; [Al-Khawaja et al., 2014]; [Kickinger et al., 2020]).
The tsA201 cell line (a transformed HEK293 cell line), the Flp-In CHO cell lines stably expressing human (h) GATs and the HEK293 cell line stably expressing human α1β2γ2 GABAA receptors have been described previously and were cultured accordingly ([Al-Khawaja et al., 2014]; [Falk-Petersen et al., 2020]). […]
The FMP assay performed on human α1β2γ2 GABAA receptors in HEK293 cells was performed as described and data analyzed accordingly ([Falk-Petersen et al., 2020]). […] Test compound solutions were prepared at 4x concentration in assay buffer and added to ligand plates pre-heated at 37°C for 10–15 min in the FLEXstation3 plate reader (Molecular Devices). After incubation, 33.3 µL test compound solution (4x) was automatically transferred to each well in the cell plate and the signal was measured for 90 s by measuring emission at 560 nm caused by excitation at 530 nm. […] Data obtained in the FMP assay are given as relative changes in fluorescence units (ΔRFU) by subtracting the average of the baseline fluorescence signal from the peak fluorescence signal after compound addition. […] A Gaddum-Schild plot was performed according to the equation: log(dr-1) = log(B)+pA2, where B is the concentration of the inhibitor, pA2 is the negative logarithm of the dissociation constant KB, and the dose-ratio dr is equal to the EC′50/EC50, where EC′50 and EC50 are determined in the presence and absence of the different inhibitor concentrations, respectively. […]

T1 sequence (P14867 28-456): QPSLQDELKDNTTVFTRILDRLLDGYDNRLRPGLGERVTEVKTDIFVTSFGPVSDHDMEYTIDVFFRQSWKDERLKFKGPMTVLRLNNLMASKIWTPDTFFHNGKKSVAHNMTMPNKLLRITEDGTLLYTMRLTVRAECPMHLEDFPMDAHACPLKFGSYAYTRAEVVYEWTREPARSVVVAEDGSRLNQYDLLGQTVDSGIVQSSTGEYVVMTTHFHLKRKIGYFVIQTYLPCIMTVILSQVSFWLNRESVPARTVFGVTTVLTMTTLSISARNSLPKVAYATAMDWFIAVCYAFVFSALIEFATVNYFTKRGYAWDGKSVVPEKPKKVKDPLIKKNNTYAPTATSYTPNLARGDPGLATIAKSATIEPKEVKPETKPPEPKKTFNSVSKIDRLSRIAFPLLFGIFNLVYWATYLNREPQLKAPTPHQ
T1 sequence (P47870 25-512 limits assumed): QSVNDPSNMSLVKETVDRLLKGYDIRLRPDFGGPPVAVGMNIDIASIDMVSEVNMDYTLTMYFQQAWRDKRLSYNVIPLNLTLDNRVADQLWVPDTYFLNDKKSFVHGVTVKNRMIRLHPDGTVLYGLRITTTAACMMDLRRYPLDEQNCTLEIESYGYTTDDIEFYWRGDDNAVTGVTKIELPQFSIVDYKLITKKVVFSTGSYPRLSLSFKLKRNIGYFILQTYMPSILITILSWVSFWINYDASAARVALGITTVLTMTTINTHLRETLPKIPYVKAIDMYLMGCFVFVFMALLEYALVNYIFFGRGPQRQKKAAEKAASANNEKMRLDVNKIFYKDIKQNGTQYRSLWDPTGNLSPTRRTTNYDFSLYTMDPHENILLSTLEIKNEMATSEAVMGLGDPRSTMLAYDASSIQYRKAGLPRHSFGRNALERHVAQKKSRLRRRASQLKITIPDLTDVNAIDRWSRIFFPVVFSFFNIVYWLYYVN
T1 sequence (P18507 40-475 partner): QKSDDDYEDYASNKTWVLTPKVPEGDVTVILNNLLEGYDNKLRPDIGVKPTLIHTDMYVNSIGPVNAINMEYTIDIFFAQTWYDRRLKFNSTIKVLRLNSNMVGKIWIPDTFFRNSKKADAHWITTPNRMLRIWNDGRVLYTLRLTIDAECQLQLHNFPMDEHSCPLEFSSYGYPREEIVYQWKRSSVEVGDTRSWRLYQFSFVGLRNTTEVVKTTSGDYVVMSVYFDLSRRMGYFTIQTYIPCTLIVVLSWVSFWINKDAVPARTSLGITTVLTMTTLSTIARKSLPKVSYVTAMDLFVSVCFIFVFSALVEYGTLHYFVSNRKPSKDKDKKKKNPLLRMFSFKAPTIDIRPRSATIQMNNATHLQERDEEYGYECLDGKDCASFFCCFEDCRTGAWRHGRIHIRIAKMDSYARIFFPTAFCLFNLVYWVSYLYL

EC50 (agonist activity, HEK293 cells) [µM] | Structure (SMILES) | Activity at α1β2γ2 GABAA receptors
5.1 | N[C@@]12CC[C@H](C(=O)O)[C@@H]1C2 [bicyclo-GABA, (1S,2S,5R)-5-aminobicyclo[3.1.0]hexane-2-carboxylic acid] | low micromolar agonistic activity
 | CN[C@@]12CC[C@H](C(=O)O)[C@@H]1C2 [compound 2] | completely devoid of activity; also recorded: inactive
